Data: US20230107195A1, “TREATMENT OF CANCER WITH SMG1-INHIBITORS” (Celgene Corporation, priority 2017, published 2023)
Entries after “also recorded” stand apart in the source; their conditions may differ.

What was measured:
SMG1 [1] = target: T1, SMG1 (Homo sapiens, UniProt Q96Q15); experiment: Western blot for marker of SMG1 inhibition (pATM/ATR substrate band colocalizing with UPF1) in HCT-116 cells; format: cell-based; details: parental and DNAPK−/− HCT116 cells
T1 construct: endogenous in cells; host or cells: HCT-116 parental and HCT-116 DNA-PK-/- cells
T1 sequence (Q96Q15 whole entry): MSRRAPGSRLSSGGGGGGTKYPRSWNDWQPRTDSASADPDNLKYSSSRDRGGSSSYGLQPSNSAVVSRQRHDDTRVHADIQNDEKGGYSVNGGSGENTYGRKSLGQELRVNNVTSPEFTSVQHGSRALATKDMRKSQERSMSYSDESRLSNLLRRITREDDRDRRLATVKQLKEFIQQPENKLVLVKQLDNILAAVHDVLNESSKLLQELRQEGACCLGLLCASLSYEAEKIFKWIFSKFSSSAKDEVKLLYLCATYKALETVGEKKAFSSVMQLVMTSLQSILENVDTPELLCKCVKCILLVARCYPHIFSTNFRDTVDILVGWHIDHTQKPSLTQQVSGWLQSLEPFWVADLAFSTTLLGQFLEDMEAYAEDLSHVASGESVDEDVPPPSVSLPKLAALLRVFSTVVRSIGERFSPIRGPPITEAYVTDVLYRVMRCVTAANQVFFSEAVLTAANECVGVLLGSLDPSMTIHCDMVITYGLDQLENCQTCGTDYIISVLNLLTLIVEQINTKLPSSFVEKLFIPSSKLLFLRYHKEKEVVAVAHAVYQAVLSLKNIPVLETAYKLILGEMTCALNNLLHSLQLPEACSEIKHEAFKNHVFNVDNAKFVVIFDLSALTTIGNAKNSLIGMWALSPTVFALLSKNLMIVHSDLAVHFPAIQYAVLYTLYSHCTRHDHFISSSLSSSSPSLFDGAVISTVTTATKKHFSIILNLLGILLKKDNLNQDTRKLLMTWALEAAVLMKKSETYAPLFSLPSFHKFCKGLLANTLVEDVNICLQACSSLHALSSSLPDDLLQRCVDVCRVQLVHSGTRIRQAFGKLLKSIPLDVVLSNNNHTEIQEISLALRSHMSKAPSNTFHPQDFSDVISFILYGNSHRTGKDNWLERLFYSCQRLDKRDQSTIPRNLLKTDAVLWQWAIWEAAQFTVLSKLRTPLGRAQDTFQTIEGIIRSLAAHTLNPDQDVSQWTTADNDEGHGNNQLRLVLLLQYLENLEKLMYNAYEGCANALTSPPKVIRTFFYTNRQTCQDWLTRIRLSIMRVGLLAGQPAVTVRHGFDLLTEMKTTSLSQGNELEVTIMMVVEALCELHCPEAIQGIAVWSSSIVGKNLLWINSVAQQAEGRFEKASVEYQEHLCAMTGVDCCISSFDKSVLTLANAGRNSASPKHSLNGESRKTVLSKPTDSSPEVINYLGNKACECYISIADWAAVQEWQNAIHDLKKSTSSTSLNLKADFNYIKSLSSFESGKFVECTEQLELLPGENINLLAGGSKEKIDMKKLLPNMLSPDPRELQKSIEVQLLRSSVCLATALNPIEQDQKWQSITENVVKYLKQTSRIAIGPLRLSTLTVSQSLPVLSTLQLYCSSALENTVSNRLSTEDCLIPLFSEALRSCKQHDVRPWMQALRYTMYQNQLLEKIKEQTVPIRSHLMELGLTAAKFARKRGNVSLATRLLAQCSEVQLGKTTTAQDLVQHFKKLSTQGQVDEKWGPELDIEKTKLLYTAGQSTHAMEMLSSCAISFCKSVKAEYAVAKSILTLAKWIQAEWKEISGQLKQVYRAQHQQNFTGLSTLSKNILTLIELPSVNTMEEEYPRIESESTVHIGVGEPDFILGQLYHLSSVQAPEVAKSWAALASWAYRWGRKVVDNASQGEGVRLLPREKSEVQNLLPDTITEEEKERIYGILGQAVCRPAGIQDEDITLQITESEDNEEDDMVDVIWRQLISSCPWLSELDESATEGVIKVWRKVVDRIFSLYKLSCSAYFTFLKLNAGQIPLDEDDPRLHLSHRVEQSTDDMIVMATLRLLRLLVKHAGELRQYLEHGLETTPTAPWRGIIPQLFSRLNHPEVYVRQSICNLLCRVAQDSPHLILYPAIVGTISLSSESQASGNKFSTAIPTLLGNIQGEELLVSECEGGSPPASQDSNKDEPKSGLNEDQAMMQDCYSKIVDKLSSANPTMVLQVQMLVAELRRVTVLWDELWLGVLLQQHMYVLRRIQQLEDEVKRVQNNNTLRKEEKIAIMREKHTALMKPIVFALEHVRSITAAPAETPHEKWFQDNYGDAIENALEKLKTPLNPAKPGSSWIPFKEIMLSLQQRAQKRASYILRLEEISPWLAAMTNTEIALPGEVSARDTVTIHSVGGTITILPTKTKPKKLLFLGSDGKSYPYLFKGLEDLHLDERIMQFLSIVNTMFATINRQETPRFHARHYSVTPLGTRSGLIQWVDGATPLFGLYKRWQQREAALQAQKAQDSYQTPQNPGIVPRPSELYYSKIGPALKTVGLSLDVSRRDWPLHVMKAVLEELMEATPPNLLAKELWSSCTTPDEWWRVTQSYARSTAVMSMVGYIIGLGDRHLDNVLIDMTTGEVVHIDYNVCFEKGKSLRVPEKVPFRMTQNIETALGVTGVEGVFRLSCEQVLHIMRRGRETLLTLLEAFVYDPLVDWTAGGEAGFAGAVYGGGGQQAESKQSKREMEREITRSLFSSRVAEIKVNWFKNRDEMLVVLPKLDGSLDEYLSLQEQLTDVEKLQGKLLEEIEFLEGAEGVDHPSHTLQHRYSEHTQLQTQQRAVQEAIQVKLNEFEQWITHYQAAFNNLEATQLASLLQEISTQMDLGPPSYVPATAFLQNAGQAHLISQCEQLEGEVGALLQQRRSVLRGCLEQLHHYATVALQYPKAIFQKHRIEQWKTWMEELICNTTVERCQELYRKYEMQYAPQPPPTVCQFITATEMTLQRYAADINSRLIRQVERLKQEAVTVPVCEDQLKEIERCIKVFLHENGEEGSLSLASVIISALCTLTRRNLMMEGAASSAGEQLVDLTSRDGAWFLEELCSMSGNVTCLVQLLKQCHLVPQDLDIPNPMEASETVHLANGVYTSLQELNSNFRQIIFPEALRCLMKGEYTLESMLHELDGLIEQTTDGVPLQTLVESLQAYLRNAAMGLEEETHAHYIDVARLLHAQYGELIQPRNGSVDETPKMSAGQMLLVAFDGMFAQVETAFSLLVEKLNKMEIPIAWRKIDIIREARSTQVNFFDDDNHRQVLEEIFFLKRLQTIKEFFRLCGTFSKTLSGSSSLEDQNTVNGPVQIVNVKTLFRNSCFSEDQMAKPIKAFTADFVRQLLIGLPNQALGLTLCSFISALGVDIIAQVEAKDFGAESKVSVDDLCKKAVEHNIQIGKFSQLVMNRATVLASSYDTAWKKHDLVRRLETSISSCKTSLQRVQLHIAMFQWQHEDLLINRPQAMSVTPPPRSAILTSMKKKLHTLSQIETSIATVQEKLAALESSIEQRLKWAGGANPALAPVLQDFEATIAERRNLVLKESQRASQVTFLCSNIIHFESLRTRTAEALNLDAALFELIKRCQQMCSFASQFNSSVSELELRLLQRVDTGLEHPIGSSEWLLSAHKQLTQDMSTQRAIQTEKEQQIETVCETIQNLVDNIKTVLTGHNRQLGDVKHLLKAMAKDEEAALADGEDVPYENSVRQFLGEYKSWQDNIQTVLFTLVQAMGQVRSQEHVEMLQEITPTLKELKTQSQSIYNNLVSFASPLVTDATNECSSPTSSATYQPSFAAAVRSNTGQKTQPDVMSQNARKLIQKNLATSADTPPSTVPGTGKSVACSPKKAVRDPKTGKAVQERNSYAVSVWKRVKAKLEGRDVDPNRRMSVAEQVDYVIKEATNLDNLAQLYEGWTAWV
Excerpt: SDS-PAGE and Western blot: Equal amounts of protein were subjected to SDS-PAGE using 3-8% tris-acetate protein gels (Thermo Fisher Scientific #A03755BOX, for DNA-PK, SMG1 and vinculin detection) and 4-12% bis-tris protein gels (Thermo Fisher Scientific #NP0323BOX, for phospho-(Ser/Thr) ATM/ATR substrate, UPF1, GAPDH, S6, phospho-4E-BP1, and cofilin detection). Proteins were electrophoretically transferred to 0.2 μm nitrocellulose membranes (Thermo Fisher Scientific #LC2000) and blocked for 1 hour with Odyssey Blocking Buffer TBS (LI-COR #927-50000). Membranes from 3-8% tris-acetate gels were incubated overnight with antibodies against total DNA-PK (Cell Signaling #12311), phospho DNA-PK (Ser2056) (Abcam #ab124918), total SMG1 (Cell Signaling #9149) and vinculin (Sigma #V9264). Membranes from 4-12% bis-tris gels were incubated overnight with antibodies against phospho-(Ser/Thr) ATM/ATR substrate (Cell Signaling #2851), total UPF1 (Sigma #SAB 1402893), GAPDH (Santa Cruz #47724), total S6 Ribosomal Protein (Santa Cruz #74459), phosphoS6 Ribosomal Protein (Ser240/244) (Cell Signaling #5364), phospho-4E-BP1 (Thr70) (Cell Signaling #9455), and cofilin (Santa Cruz #376476). Membranes were washed with TBST and incubated with IRDye 800CW Goat anti-Rabbit IgG (LI-COR #926-32211) and IRDye 680LT Goat anti-Mouse IgG (LI-COR #926-68020) secondary antibodies for 1 hour. […]

SMG1 [2] = target: T1, SMG1; experiment: ActivX KiNativ assay (probe binding, LC-MS); details: 0.3 μM and 1.0 μM dose, 1 h, four different cell lines
Experimental: (§1) After 1 h, the medium was aspirated; cells were rinsed once with ice cold PBS, scraped off and transferred to a 15 ml conical tube. Cells were pelleted by centrifugation, the supernatant was discarded and pellets were frozen on dry ice and stored at −80° C. KiNativ assay: Briefly, lysates were prepared from cell pellets and incubated with ADP and ATP probes. After a tryptic digest, the probe labeled peptides were characterized and quantified using targeted Liquid Chromatography-Mass Spectrometry (LC-MS). Percent inhibition is defined as the reduction of probe binding in the presence of compound, indicating binding of the compound to the kinase.

DNA-PK = target: T2, DNA-PK (Homo sapiens, UniProt P78527); experiment: ActivX KiNativ assay (probe binding, LC-MS); details: 0.3 μM and 1.0 μM dose, 1 h, four different cell lines
T2 construct: lysates were prepared from cell pellets and incubated with ADP and ATP probes; endogenous in cells
Experimental: as §1

TORK [3] = target: T3, TORK (Homo sapiens, UniProt P42345); experiment: Western blot for markers of TORK inhibition (pS6 and p4EBP1) in HCT-116 cells; format: cell-based; details: parental and DNAPK−/− HCT116 cells
TORK [4] = target: T3, TORK; experiment: ActivX KiNativ assay (probe binding, LC-MS); parameters: lysates were prepared from cell pellets and incubated with ADP and ATP probes; endogenous in cells; details: 0.3 μM and 1.0 μM dose, 1 h, four different cell lines

binding to SMG1 (% inhibition of probe binding) (SMG1 [2]): only binds TORK | binding to DNA-PK (% inhibition of probe binding) (DNA-PK): only binds TORK | binding to TORK (% inhibition of probe binding) (TORK [4]): only binds TORK
SMILES: CO[C@H]1CC[C@H](N2C(=O)CNc3ncc(-c4ccc(C(C)(C)O)nc4)nc32)CC1 [Compound 2, 7-(6-(2-hydroxypropan-2-yl)pyridin-3-yl)-1-((trans)-4-methoxycyclohexyl)-3,4-dihydropyrazino[2,3-b]pyrazin-2(1H)-one]
marker of SMG1 inhibition (pATM/ATR substrate, pUPF1) (SMG1 [1]): binds to TORK (pS6 and p4EBP1) only; also recorded: not by Compound 2 | markers of TORK inhibition (pS6 and p4EBP1) (TORK [3]): binds to TORK (pS6 and p4EBP1) only; also recorded: reduced
